Measurements taken from PMC9897788, “Design, synthesis and cytotoxic evaluation of novel bis-thiazole derivatives as preferential Pim1 kinase inhibitors with in vivo and in silico study” (Journal of Enzyme Inhibition and Medicinal Chemistry, 2023).

Experiments:
[1] = system: CAKI-1; assay: NCI 60 cell one-dose screening (SRB); assay type: cell-based; conditions: Homo sapiens; CAKI-1, Renal Cancer; single dose 10 µM, 48 h; read-out: Percentage of cellular growth inhibition
In short: (§1)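 Treatment: 10 µM, 48 h. Medium: RPMI 1640, 5% FBS, 2 mM L-glutamine. Read-out: SRB absorbance at 515 nm after TCA fixation; inhibition = 100 − growth % against no-drug control, with a time-zero baseline.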

[2] = system: HCC-2998; assay: NCI 60 cell one-dose screening (SRB); assay type: cell-based; conditions: Homo sapiens; HCC-2998, Colon Cancer; single dose 10 µM, 48 h; read-out: Percentage of cellular growth inhibition
In short: as §1

[3] = system: HOP-92; assay: NCI 60 cell one-dose screening (SRB); assay type: cell-based; conditions: Homo sapiens, HOP-92, 48 h, HOP-92, Non-Small Cell Lung Cancer, single dose 10 µM, read-out: Percentage of cellular growth inhibition
In short: as §1

[4] = system: LOX IMVI; assay: NCI 60 cell one-dose screening (SRB); assay type: cell-based; conditions: Homo sapiens, Melanoma, single dose 10 µM, 48 h, read-out: Percentage of cellular growth inhibition
In short: as §1

[5] = system: MCF7; assay: NCI 60 cell one-dose screening (SRB); assay type: cell-based; conditions: Homo sapiens; MCF7, Breast Cancer; single dose 10 µM, 48 h; read-out: Percentage of cellular growth inhibition
In short: as §1

[6] = system: MDA-MB-435; assay: NCI 60 cell one-dose screening (SRB); assay type: cell-based; conditions: Homo sapiens; MDA-MB-435, Melanoma; single dose 10 µM, 48 h; read-out: Percentage of cellular growth inhibition
In short: as §1

[7] = system: MOLT-4; assay: NCI 60 cell one-dose screening (SRB); assay type: cell-based; conditions: Homo sapiens; MOLT-4, Leukemia; single dose 10 µM, 48 h; read-out: Percentage of cellular growth inhibition
In short: as §1

[8] = system: NCI-H226; assay: NCI 60 cell one-dose screening (SRB); assay type: cell-based; conditions: Homo sapiens; NCI-H226, Non-Small Cell Lung Cancer; single dose 10 µM, 48 h; read-out: Percentage of cellular growth inhibition
In short: as §1

[9] = system: NCI-H23; assay: NCI 60 cell one-dose screening (SRB); assay type: cell-based; conditions: Homo sapiens; NCI-H23, Non-Small Cell Lung Cancer; single dose 10 µM, 48 h; read-out: Percentage of cellular growth inhibition
In short: as §1

[10] = system: RXF 393; assay: NCI 60 cell one-dose screening (SRB); assay type: cell-based; conditions: Homo sapiens; RXF 393, Renal Cancer; single dose 10 µM, 48 h; read-out: Percentage of cellular growth inhibition
In short: as §1

[11] = system: SF-295; assay: NCI 60 cell one-dose screening (SRB); assay type: cell-based; conditions: Homo sapiens; SF-295, CNS Cancer; single dose 10 µM, 48 h; read-out: Percentage of cellular growth inhibition
In short: as §1

[12] = system: SK-OV-3; assay: NCI 60 cell one-dose screening (SRB); assay type: cell-based; conditions: Homo sapiens; SK-OV-3, Ovarian Cancer; single dose 10 µM, 48 h; read-out: Percentage of cellular growth inhibition
In short: as §1

[13] = system: SNB-75; assay: NCI 60 cell one-dose screening (SRB); assay type: cell-based; conditions: Homo sapiens; SNB-75, CNS Cancer; single dose 10 µM, 48 h; read-out: Percentage of cellular growth inhibition
In short: as §1

[14] = system: SR; assay: NCI 60 cell one-dose screening (SRB); assay type: cell-based; conditions: Homo sapiens, Leukemia, single dose 10 µM, 48 h, read-out: Percentage of cellular growth inhibition
In short: as §1

[15] = system: T-47D; assay: NCI 60 cell one-dose screening (SRB); assay type: cell-based; conditions: Homo sapiens, T47D, 48 h, Breast Cancer, single dose 10 µM, read-out: Percentage of cellular growth inhibition
In short: as §1

[16] = system: UO-31; assay: NCI 60 cell one-dose screening (SRB); assay type: cell-based; conditions: Homo sapiens; UO-31, Renal Cancer; single dose 10 µM, 48 h; read-out: Percentage of cellular growth inhibition
In short: as §1

[17] = system: Breast T47D cancer cell line; assay: In vitro inhibition concentration of breast T47D cancer cell line; assay type: cell-based; conditions: Homo sapiens
Procedure: Cells were seeded and treated with a range of inhibitors concentration 39–10,000 nM after 24 h relative to DMSO. […]

[18] = system: OVCAR-3; assay: NCI 60 cell one-dose screening (SRB); assay type: cell-based; conditions: Homo sapiens; OVCAR-3, Ovarian Cancer; single dose 10 µM, 48 h; read-out: Percentage of cellular growth inhibition
In short: as §1

[19] = system: SK-MEL-2; assay: NCI 60 cell one-dose screening (SRB); assay type: cell-based; conditions: Homo sapiens; SK-MEL-2, Melanoma; single dose 10 µM, 48 h; read-out: Percentage of cellular growth inhibition
In short: as §1

SMILES | inhibition at 10 µM [1] | inhibition at 10 µM [2] | inhibition at 10 µM [3] | inhibition at 10 µM [4] | inhibition at 10 µM [5] | inhibition at 10 µM [6] | inhibition at 10 µM [7] | inhibition at 10 µM [8] | inhibition at 10 µM [9] | inhibition at 10 µM [10] | inhibition at 10 µM [11] | inhibition at 10 µM [12] | inhibition at 10 µM [13] | inhibition at 10 µM [14] | inhibition at 10 µM [15] | inhibition at 10 µM [16] | IC50 ([17]; 48 h) | IC50 ([17]; 96 h) | melting point | inhibition at 10 µM [18] | also measured
Cc1csc(Nc2cccc(Nc3nc(C)cs3)c2)n1 [3a, N^1,N^3-bis(4-methylthiazol-2-yl)benzene-1,3-diamine] | 23.7% | -4.2% | 41.2% | 25.5% | 21.9% | 4% | 44% | 24.2% | 21.2% | 4.8% | 9.5% | 10.7% | 1.6% | 17.3% | 36.8% | 15.7% | 7.82 µM | 2.86 µM | 137 to 139 °C |  | 
CCOC(=O)c1sc(Nc2cccc(Nc3nc(C)c(C(=O)OCC)s3)c2)nc1C [3c, Diethyl 2,2’-(1,3-phenylenebis(azanediyl))bis(4-methylthiazole-5-carboxylate)] | 21.9% | 9.7% | 47.8% | 25.5% | 26.7% | 17.9% | 29.2% | 15% | 41.6% | 9% | 33.8% | 1.3% | 2.6% | 36.1% | 63.9% | 32.9% |  |  | 107 to 108 °C |  | 
CCOc1ccc(/N=N/c2sc(Nc3cccc(Nc4nc(C)c(/N=N/c5ccc(OCC)cc5)s4)c3)nc2C)cc1 [5b, N^1,N^3-bis(5-((4-ethoxyphenyl)diazinyl)-4-methylthiazol-2-yl)benzene-1,3-diamine] | 8.3% | -4.6% | 25.1% | 2.6% | 10.6% | 1.6% | -2.2% | 14.8% | 10.6% | 1% | 4.4% | 1.1% | 7.8% | -15.5% | 17.1% | 12.4% |  |  | 116 to 118 °C |  | 
CC(=O)c1sc(Nc2cccc(Nc3nc(C)c(C(C)=O)s3)c2)nc1C [3b, 1,1’-(2,2’-(1,3-Phenylenebis(azanediyl))bis(4-methylthiazole-5,2-diyl))diethanone] | 71.9% | 19.9% | 36.4% | 51.9% | 38.3% | 40.9% | 61.7% | 34.6% | 36.8% | 53% | 13.5% | 74.2% | 37.1% | 61.5% |  | 67.8% | 5.77 µM | 1.46 µM |  |  | 
NC(=S)Nc1cccc(NC(N)=S)c1 [compound 2, 1,1′-(1,3-phenylene)bis(thiourea)] | 20.3% | -16.9% | -4.5% |  | 8.3% | 2.7% | 10.3% | 1.9% | 1.5% | -3.8% | 9.8% | -25.8% | 2.4% |  | 13.2% | 30% |  |  |  | 11.5% | inhibition at 10 µM [19]: -11.7%
c1ccc(-c2csc(Nc3cccc(Nc4nc(-c5ccccc5)cs4)c3)n2)cc1 [6a, N^1,N^3-bis(4-phenylthiazol-2-yl)benzene-1,3-diamine] | 65.1% | 64.5% | 56.3% |  | 84.4% | 55.3% | 86.3% | 33.8% | 63.2% | 36.2% | 62.4% | 2.5% | 51.4% |  |  | 67.7% | 6.58 µM | 1.78 µM | 92 to 94 °C | 46.8% | inhibition at 10 µM [19]: 35.1%
Clc1ccc(-c2csc(Nc3cccc(Nc4nc(-c5ccc(Cl)cc5)cs4)c3)n2)cc1 [6c, N^1,N^3-bis(4–(4-chlorophenyl)thiazol-2-yl)benzene-1,3-diamine] | 43% | -10.9% | 59.5% | 7.3% | 9.8% | -7.1% | 25.4% | 27.2% | 10.1% | 16.7% | 4% | 8.3% | 22.5% | 3.9% | 18.3% | 21.6% | 27.3 µM | 1.85 µM | 100 to 101 °C |  | 
Fc1ccc(-c2cs/c(=N\c3ccccc3)n2-c2cccc(-n3c(-c4ccc(F)cc4)cs/c3=N\c3ccccc3)c2)cc1 [8b, N,N’-(3,3’-(1,3-phenylene)bis(4–(4-fluorophenyl)thiazole-3(3H)-yl-2(3H)-ylidene))dianiline] | 22.2% | 12.1% | 22% | 23.9% | 42.9% | 13.1% | 50.1% | 23.5% |  | 11.6% | -18.8% | -15.4% | 15.4% | 36.1% | 51% | 26.3% | 9.8 µM | 2.61 µM |  | 4.1% | inhibition at 10 µM [19]: 22.2%
S=C(Nc1ccccc1)Nc1cccc(NC(=S)Nc2ccccc2)c1 [compound 7, 1,1′-(1,3-phenylene)bis(3-phenylthiourea)] | 10.9% | -11.5% | -15.7% |  | 8.5% | -2.8% | -5.8% | -6.2% | -5.7% | -16.6% | 1.2% | -29% | 7.9% |  | 6.3% | 14.6% |  |  |  | -6.1% | inhibition at 10 µM [19]: -35.3%
Cc1nc(Nc2cccc(Nc3nc(C)c(N=Nc4ccccc4)s3)c2)sc1N=Nc1ccccc1 [5a, N^1,N^3-bis(4-methyl-5-(phenyldiazenyl)thiazol-2-yl)benzene-1,3-diamine] | 54.8% | -0.4% | -4% |  | 52.4% | 7.9% | 32.6% | 33% | 14.7% | -4.4% | 13.6% | -6.6% | 38.4% |  | 48% | 69.7% | 10.4 µM | 4.35 µM | 115 to 116 °C | 26% | inhibition at 10 µM [19]: -6.7%
